Experimental data from patent US9422312B2, “Azabenzimidazole derivatives” (Boehringer Ingelheim International GmbH, priority 2014, dated 2016).

These compounds were tested against Activated AMPK complex 1 (containing alpha1beta1gamma1) (Homo sapiens (Human), UniProt Q13131+Q9Y478) (assay: in vitro AMPK activation assay (ADP-Glo Kinase Assay)). Settings: 1 μM peptide substrate, 30 μM ATP, 60 min, room temperature, luminescence.
Format: biochemical
Description: Activated AMPK complex 1 (containing alpha1beta1gamma1) was obtained from baculovirus expression system. The gene encoding AMPK alpha1 was cloned into the pACG2T vector (BD Biosciences) to obtain a N-terminal Glutathion S transferase (GST)-fusion protein. The genes encoding AMPK beta 1 and gamma1 were cloned into the p2Bac dual multiple cloning site vector (Invitrogen) with beta1 under the control of the p10 promoter and gamma1 under the control of the PH promoter. The transfer vectors containing AMPK were co-transfected individually with AcPNV BacMagic-3 DNA (EMD Millipore) in Sf9 cells and the recombinant baculoviruses were harvested after 5 days, followed by 3 rounds of amplification of the virus stock in Sf9 cells. AMPK (alpha1beta1gamma1) was expressed in High Five 5 cells by co-infection of recombinant alpha1 virus and recombinant beta1/gamma1 virus for 72 h at 27° C. Cells were harvested by centrifugation and lysed by 3 freeze/thaw cycles in PBS with 10% glycerol and protease inhibitor cocktail (Roche). After centrifugation AMPK a1b1g1 in the supernatant was captured by immobilized glutathione (GE Healthcare), impurities were washed away with PBS and AMPK alpha1beta1gamma1 was eluted with PBS containing 20 mM reduced gluthathione. The protein buffer was then exchanged to PBS with 10% glycerol and protein concentration was determined by UV absorbance.
The white 384-well Optiplates (cat. no. 6007299) were purchased from PerkinElmer. The V9101 ADP-Glo Kinase Assay and ultra pure ATP (V915A) was purchased from Promega. The substrate for AMPK (NH2-HMRSAMSGLHLVKRR_CONH2) was purchased from Upstate (12-355).
Compounds were tested in either serial dilutions or single dose concentrations. The serial compound dilutions were prepared in 100% DMSO automatically. The final DMSO concentration in the assay was 0.1%.
The Compound Stock Solutions were 10 mM in 100% DMSO. The compounds were solubilised at room temperature.
In the 384-well plates 1.25 ul of test compound in assay buffer was mixed with 1.25 ul of AMPK and 1.25 μl of the peptide (final concentration of 1 μM) and 1.25 μl of ATP (final concentration of 30 μM), both dissolved in assay buffer. This step was followed by an incubation time of 60 min. Then 5 μl of ADP Glo Reagent was added. This was followed by 40 min of incubation. Then 10 μl of Kinase Detection Reagent was admixed. The plates were sealed and after an incubation period of 30 min, the luminescence signal was measured in an Envision reader. All incubation steps were accomplished at room temperature.
Each assay microtiter plate contained wells with vehicle controls instead of compound (0.1% DMSO in water) as reference for the low signal (100% CTL, low signal), and wells with serial dilutions of AMP (final 30 μM) as reference for high signals.
The luminescence signal generated was proportional to the ADP concentration produced and was correlated with AMPK activity. The analysis of the data was performed by the calculation of the percentage of ATP consumption of AMPK in the presence of the test compound compared to the consumption of ATP in the presence of AMPK without compound. (RLU(sample)/RLU(low control))*100[RLU=relative luminescence units]
An activator of the AMPK enzyme gave values above 100% CTL.
EC50 values based on dose response curves are calculated with the XIFIT software using the 4 Parameter Logistic Model or Sigmoidal Dose-Response Model.

Sequence of Activated AMPK complex 1 (containing alpha1beta1gamma1) (Q13131 whole entry): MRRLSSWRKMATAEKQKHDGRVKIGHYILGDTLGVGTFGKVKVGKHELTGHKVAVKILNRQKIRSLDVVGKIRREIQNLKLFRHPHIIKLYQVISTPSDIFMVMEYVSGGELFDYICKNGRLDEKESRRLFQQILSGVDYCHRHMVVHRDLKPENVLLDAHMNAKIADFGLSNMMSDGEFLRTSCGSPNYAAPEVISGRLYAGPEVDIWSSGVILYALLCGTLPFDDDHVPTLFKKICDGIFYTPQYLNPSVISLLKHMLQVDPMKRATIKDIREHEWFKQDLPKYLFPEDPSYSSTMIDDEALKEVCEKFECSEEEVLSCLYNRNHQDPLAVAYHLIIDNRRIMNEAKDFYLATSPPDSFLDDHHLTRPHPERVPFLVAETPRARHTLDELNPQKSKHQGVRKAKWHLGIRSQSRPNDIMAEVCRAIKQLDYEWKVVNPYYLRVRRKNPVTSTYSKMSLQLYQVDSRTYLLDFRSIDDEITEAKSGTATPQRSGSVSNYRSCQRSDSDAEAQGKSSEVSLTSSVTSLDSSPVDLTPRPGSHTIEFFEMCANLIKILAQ
Sequence of Activated AMPK complex 1 (containing alpha1beta1gamma1) (Q9Y478 whole entry): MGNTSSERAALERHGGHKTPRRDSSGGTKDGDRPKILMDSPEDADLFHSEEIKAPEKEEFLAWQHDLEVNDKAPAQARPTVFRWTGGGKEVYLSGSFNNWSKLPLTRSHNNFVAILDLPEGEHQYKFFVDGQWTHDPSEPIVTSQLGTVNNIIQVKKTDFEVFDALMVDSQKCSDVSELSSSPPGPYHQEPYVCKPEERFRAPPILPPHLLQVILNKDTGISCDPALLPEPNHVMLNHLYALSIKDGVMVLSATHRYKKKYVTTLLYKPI
Sequence of Activated AMPK complex 1 (containing alpha1beta1gamma1) (P54619 whole entry partner): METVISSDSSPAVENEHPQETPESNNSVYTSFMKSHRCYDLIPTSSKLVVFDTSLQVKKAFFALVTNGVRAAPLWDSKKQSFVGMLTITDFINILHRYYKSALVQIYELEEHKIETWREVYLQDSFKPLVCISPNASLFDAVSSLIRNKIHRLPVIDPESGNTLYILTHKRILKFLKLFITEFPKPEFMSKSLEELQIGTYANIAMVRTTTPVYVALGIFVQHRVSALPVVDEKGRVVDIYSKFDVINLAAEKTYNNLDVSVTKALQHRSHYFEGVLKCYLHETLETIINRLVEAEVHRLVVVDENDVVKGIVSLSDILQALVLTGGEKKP

Compared with `CN(C)S(C)(=O)=Nc1ccc(-c2ccc(-c3nc4[nH]c(O[C@@H]5CO[C@H]6[C@@H]5OC[C@H]6O)nc4cc3Cl)cc2)cc1` (stereo partly drawn) [Example 1, N′-{4-[4-(2-{[(3R,3aR,6R,6aR)-6-Hydroxy-hexahydrofuro[3,2-b]furan-3-yl]oxy}-6-chloro-3H-imidazo[4,5-b]pyridin-5-yl)phenyl]phenyl}-N,N-dimethyl-methanesulfonimidamide], `CCN(C)S(C)(=O)=Nc1ccc(-c2ccc(-c3nc4[nH]c(O[C@@H]5CO[C@H]6[C@@H]5OC[C@H]6O)nc4cc3Cl)cc2)cc1` (stereo partly drawn) [Example 4, N′-{4-[4-(2-{[(3R,3aR,6R,6aR)-6-Hydroxy-hexahydrofuro[3,2-b]furan-3-yl]oxy}-6-chloro-3H-imidazo[4,5-b]pyridin-5-yl)phenyl]phenyl}-N-ethyl-N-methyl-methanesulfonimidamide] is 2-fold higher in EC50: 0.026 µM for the first, 0.052 µM for the second.

First: CNS(C)(=O)=Nc1ccc(-c2ccc(-c3nc4[nH]c(O[C@@H]5CO[C@H]6[C@@H]5OC[C@H]6O)nc4cc3Cl)cc2)cc1 (stereo partly drawn) [Example 2, N′-{4-[4-(2-{[(3R,3aR,6R,6aR)-6-Hydroxy-hexahydrofuro[3,2-b]furan-3-yl]oxy}-6-chloro-3H-imidazo[4,5-b]pyridin-5-yl)phenyl]phenyl}-N-methyl-methanesulfonimidamide]
Second: CCNS(C)(=O)=Nc1ccc(-c2ccc(-c3nc4[nH]c(O[C@@H]5CO[C@H]6[C@@H]5OC[C@H]6O)nc4cc3Cl)cc2)cc1 (stereo partly drawn) [Example 8, N-{4-[4-(2-{[(3R,3aR,6R,6aR)-6-Hydroxy-hexahydrofuro[3,2-b]furan-3-yl]oxy}-6-chloro-3H-imidazo[4,5-b]pyridin-5-yl)phenyl]phenyl}-N′-ethyl-methanesulfonimidamide]
The EC50 of the first is 3-fold lower: 0.02 µM for the first, 0.061 µM for the second. The first is the more potent here.

`CC(C)NS(C)(=O)=Nc1ccc(-c2ccc(-c3nc4[nH]c(O[C@@H]5CO[C@H]6[C@@H]5OC[C@H]6O)nc4cc3Cl)cc2)cc1` (stereo partly drawn) [Example 3, N′-{4-[4-(2-{[(3R,3aR,6R,6aR)-6-Hydroxy-hexahydrofuro[3,2-b]furan-3-yl]oxy}-6-chloro-3H-imidazo[4,5-b]pyridin-5-yl)phenyl]phenyl}-N-(propan-2-yl)-methanesulfonimidamide] and `CS(=O)(=Nc1ccc(-c2ccc(-c3nc4[nH]c(O[C@@H]5CO[C@H]6[C@@H]5OC[C@H]6O)nc4cc3Cl)cc2)cc1)NC1CC1` (stereo partly drawn) [Example 9, N-{4-[4-(2-{[(3R,3aR,6R,6aR)-6-Hydroxy-hexahydrofuro[3,2-b]furan-3-yl]oxy}-6-chloro-3H-imidazo[4,5-b]pyridin-5-yl)phenyl]phenyl}-N′-cyclopropyl-methanesulfonimidamide] are within 1.5-fold of each other in EC50: 0.094 µM for the first, 0.089 µM for the second.

Going from `CS(=O)(=Nc1ccc(-c2ccc(-c3nc4[nH]c(O[C@@H]5CO[C@H]6[C@@H]5OC[C@H]6O)nc4cc3Cl)cc2)cc1)N1CCC1` (stereo partly shown) [Example 5] to `CS(=O)(=Nc1ccc(-c2ccc(-c3nc4[nH]c(O[C@@H]5CO[C@H]6[C@@H]5OC[C@H]6O)nc4cc3Cl)cc2)cc1)N1CCCC1` (stereo partly drawn) [Example 6, (3R,3aR,6R,6aR)-6-({6-Chloro-5-[4-(4-{[methyl(oxo)pyrrolidin-1-yl-λ^6-sulfanylidene]-amino}phenyl)phenyl]-3H-imidazo[4,5-b]pyridin-2-yl}oxy)hexahydrofuro[3,2-b]furan-3-ol], the EC50 rises from 0.015 µM to 0.054 µM (3.6-fold). The first is the more potent here.

Compared with `CS(=O)(=Nc1ccc(-c2ccc(-c3nc4[nH]c(O[C@@H]5CO[C@H]6[C@@H]5OC[C@H]6O)nc4cc3Cl)cc2)cc1)NC1CCC1` (stereo partly drawn) [Example 7, N-{4-[4-(2-{[(3R,3aR,6R,6aR)-6-Hydroxy-hexahydrofuro[3,2-b]furan-3-yl]oxy}-6-chloro-3H-imidazo[4,5-b]pyridin-5-yl)phenyl]phenyl}-N′-cyclobutyl-methanesulfonimidamide], `CN=S(=O)(NC)c1ccc(-c2ccc(-c3nc4[nH]c(O[C@@H]5CO[C@H]6[C@@H]5OC[C@H]6O)nc4cc3Cl)cc2)cc1` (stereo partly drawn) [Example 18, 4-[4-(2-{[(3R,3aR,6R,6aR)-6-hydroxy-hexahydrofuro[3,2-b]furan-3-yl]oxy}-6-chloro-3H-imidazo[4,5-b]pyridin-5-yl)phenyl]-N,N′-dimethyl-benzenesulfonimidamide] is 1.8-fold higher in EC50: 0.037 µM for the first, 0.067 µM for the second.

Compared with `CN(C)S(C)(=O)=Nc1ccc(-c2ccc(-c3nc4[nH]c(O[C@@H]5CO[C@H]6[C@@H]5OC[C@H]6O)nc4cc3Cl)cc2)nc1` (stereo partly drawn) [Example 10, N′-{6-[4-(2-{[(3R,3aR,6R,6aR)-6-Hydroxy-hexahydrofuro[3,2-b]furan-3-yl]oxy}-6-chloro-3H-imidazo[4,5-b]pyridin-5-yl)phenyl]pyridin-3-yl}-N,N-dimethyl-methanesulfonimidamide], `CNS(C)(=O)=Nc1ccc(-c2ccc(-c3nc4[nH]c(O[C@@H]5CO[C@H]6[C@@H]5OC[C@H]6O)nc4cc3Cl)cc2)nc1` (stereo partly drawn) [Example 11, N′-{6-[4-(2-{[(3R,3aR,6R,6aR)-6-Hydroxy-hexahydrofuro[3,2-b]furan-3-yl]oxy}-6-chloro-3H-imidazo[4,5-b]pyridin-5-yl)phenyl]pyridin-3-yl}-N-methyl-methanesulfonimidamide] is 3.6-fold higher in EC50: 0.017 µM for the first, 0.062 µM for the second.

Compared with `CN(C)S(=N)(=O)c1ccc(-c2ccc(-c3nc4[nH]c(O[C@@H]5CO[C@H]6[C@@H]5OC[C@H]6O)nc4cc3Cl)cc2)cc1` (stereo partly drawn) [Example 12, 4-[4-(2-{[(3R,3aR,6R,6aR)-6-Hydroxy-hexahydrofuro[3,2-b]furan-3-yl]oxy}-6-chloro-3H-imidazo[4,5-b]pyridin-5-yl)phenyl]-N,N-dimethyl-benzenesulfonimidamide], `CN=S(=O)(c1ccc(-c2ccc(-c3nc4[nH]c(O[C@@H]5CO[C@H]6[C@@H]5OC[C@H]6O)nc4cc3Cl)cc2)cc1)N(C)C` (stereo partly drawn) [Example 15, 4-[4-(2-{[(3R,3aR,6R,6aR)-6-Hydroxy-hexahydrofuro[3,2-b]furan-3-yl]oxy}-6-chloro-3H-imidazo[4,5-b]pyridin-5-yl)phenyl]-N,N,N′-trimethyl-benzenesulfonimidamide] is 45-fold higher in EC50: 0.002 µM for the first, 0.09 µM for the second. The first is the more potent here.

Going from `CN(C)S(C)(=O)=Nc1cnc(-c2ccc(-c3nc4[nH]c(O[C@@H]5CO[C@H]6[C@@H]5OC[C@H]6O)nc4cc3Cl)cc2)nc1` (stereo partly drawn) [Example 13, N′-{2-[4-(2-{[(3R,3aR,6R,6aR)-6-hydroxy-hexahydrofuro[3,2-b]furan-3-yl]oxy}-6-chloro-3H-imidazo[4,5-b]pyridin-5-yl)phenyl]pyrimidin-5-yl}-N,N-dimethyl-methanesulfonimidamide] to `CS(=O)(=Nc1cnc(-c2ccc(-c3nc4[nH]c(O[C@@H]5CO[C@H]6[C@@H]5OC[C@H]6O)nc4cc3Cl)cc2)nc1)N1CCCC1` (stereo partly drawn) [Example 16, (3R,3aR,6R,6aR)-6-({6-Chloro-5-[4-(5-{[methyl(oxo)pyrrolidin-1-yl-λ^6-sulfanylidene]-amino}pyrimidin-2-yl)phenyl]-3H-imidazo[4,5-b]pyridin-2-yl}oxy)-hexahydrofuro[3,2-b]furan-3-ol], the EC50 rises from 0.03 µM to 0.048 µM (1.6-fold). The first is the more potent here.

First: N=S1(=O)CCCN1Cc1ccc(-c2ccc(-c3nc4[nH]c(O[C@@H]5CO[C@H]6[C@@H]5OC[C@H]6O)nc4cc3Cl)cc2)cc1 (stereo partly drawn) [Example 14, 2-({4-[4-(2-{[(3R,3aR,6R,6aR)-6-Hydroxy-hexahydrofuro[3,2-b]furan-3-yl]oxy}-6-chloro-3H-imidazo[4,5-b]pyridin-5-yl)phenyl]phenyl}methyl)-1-imino-1λ^6,2-thiazolidin-1-one]
Second: N#CN=S1(=O)CCCN1c1ccc(-c2ccc(-c3nc4[nH]c(O[C@@H]5CO[C@H]6[C@@H]5OC[C@H]6O)nc4cc3Cl)cc2)cc1 (stereo partly drawn) [Example 17, [(2-{4-[4-(2-{[(3R,3aR,6R,6aR)-6-Hydroxy-hexahydrofuro[3,2-b]furan-3-yl]oxy}-6-chloro-3H-imidazo[4,5-b]pyridin-5-yl)phenyl]phenyl}-1-oxo-1λ^6,2-thiazolidin-1-ylidene)amino]carbonitrile]
The EC50 of the first is 3.9-fold lower: 0.052 µM for the first, 0.202 µM for the second.

`CS(=O)(=NCc1ccc(-c2ccc(-c3nc4[nH]c(O[C@@H]5CO[C@H]6[C@@H]5OC[C@H]6O)nc4cc3Cl)cc2)cc1)N1CCCC1` (stereo partly shown) [Example 19] gave an EC50 of 0.138 µM.
